Patent US7794712B2, “Production of mutant strain of Aspergillus fumigatus, method of assay for inhibiting siderophore biosynthesis and diagnostic method for detecting likely Aspergillus fumigatus infection” (priority 2004, dated 2010)
“And” between values parts separate entries of the source, which are not always exact repeats. Equal values may be shown once. Non-standard residues stand in square brackets, D forms with d. Residues, ends and D or L forms follow the SMILES beside them. ξ: configuration not given here. Orn(N5-OH,N5-Ac) = CC(=O)N(O)CCC[C@H](N)C(=O)O; ξOrn(N(OH)Ac) = CC(=O)N(O)CCCC(N)C(=O)O

Columns and labels:
A. fumigatus ATCC 13073 = assay: Growth of A. fumigatus in MEM made iron limiting with 2,2′-dipyridyl; type: cell-based, Aspergillus fumigatus; settings: MEM (5 ml) with 250 μM 2,2′-dipyridyl; holo-/apotransferrin 25 μM, FeCl3 50 μM
Source text: The inventors have shown that holotransferrin but not apotransferrin supports the growth of A. fumigatus in iron-depleted medium. MEM was made iron limiting by the addition of the iron-chelator 2,2′-dipyridyl.

A. fumigatus ΔsidA = assay: Growth (dry weight) in supplemented GA medium, ΔsidA strain; type: cell-based, Aspergillus fumigatus; settings: for Restoration of growth of ΔsidA in the presence of human serum: 50 μM siderophore
Experimental: (§1) In this example the growth of various strains of A. fumigatus was monitored as follows. In a first experiment, A. fumigatus was inoculated into 5 ml volumes of YG medium or 5 ml of modified Grimm-Allen (GA) medium (1 g/L KHSO4, 3 g/L K2HPO4, 3 g/L (NH4)SO4, 20 g/L sucrose, 1 g/L citric acid, 2 mg/L thiamine, 20 μg/L CuSO4, 1 mg/L MnSO4, 5.5 mg/L ZnSO4, 810 mg/L MgSO4, pH 6.9) in 25 ml acid-washed flasks at a concentration of […]. GA medium was supplemented with […] FeCl3 where described. Human serum (male) was obtained from Sigma, stored frozen until use and added to media at a concentration of 10%. DesferriTAF and desferriferricrocin were purified from A. fumigatus cultures as described above and treated with 8-hydroxyquinoline to remove all bound iron. Siderophore solutions were filter-sterilized prior to addition to media.
(§2) In a second experiment, A. fumigatus was innoculated into 1 ml volumes of YM medium or 1 ml of the modified GA medium described above.
(§3) Alternatively, dry weights were measured by filtering the contents of each tube through pre-weighed, pre-dried Whatman #1 filters and rinsing thoroughly with distilled water. Filters were oven-dried and re-weighed.

[1] = system: A. fumigatus wild type (ATCC 13073); assay: Growth (dry weight) in supplemented GA medium, parental / wild type strain; type: cell-based, Aspergillus fumigatus
Experimental: as §1, §2, §3

A. fumigatus ΔsidA^R = assay: Growth (dry weight) in supplemented GA medium, rescued strain ΔsidA^R; type: cell-based, Aspergillus fumigatus
Experimental: as §1, §2, §3

human holotransferrin = human holotransferrin (Homo sapiens, UniProt P02787); type: biochemical; settings: for Affinity of iron removal from holotransferrin: compared with ferrichrome; for Concentration able to remove some iron from holotransferrin / Concentration at which complete absence of holotransferrin was observed: holotransferrin 25 μM, 16 h, 37° C., pH 7.4
Sequence of human holotransferrin (P02787 20-698): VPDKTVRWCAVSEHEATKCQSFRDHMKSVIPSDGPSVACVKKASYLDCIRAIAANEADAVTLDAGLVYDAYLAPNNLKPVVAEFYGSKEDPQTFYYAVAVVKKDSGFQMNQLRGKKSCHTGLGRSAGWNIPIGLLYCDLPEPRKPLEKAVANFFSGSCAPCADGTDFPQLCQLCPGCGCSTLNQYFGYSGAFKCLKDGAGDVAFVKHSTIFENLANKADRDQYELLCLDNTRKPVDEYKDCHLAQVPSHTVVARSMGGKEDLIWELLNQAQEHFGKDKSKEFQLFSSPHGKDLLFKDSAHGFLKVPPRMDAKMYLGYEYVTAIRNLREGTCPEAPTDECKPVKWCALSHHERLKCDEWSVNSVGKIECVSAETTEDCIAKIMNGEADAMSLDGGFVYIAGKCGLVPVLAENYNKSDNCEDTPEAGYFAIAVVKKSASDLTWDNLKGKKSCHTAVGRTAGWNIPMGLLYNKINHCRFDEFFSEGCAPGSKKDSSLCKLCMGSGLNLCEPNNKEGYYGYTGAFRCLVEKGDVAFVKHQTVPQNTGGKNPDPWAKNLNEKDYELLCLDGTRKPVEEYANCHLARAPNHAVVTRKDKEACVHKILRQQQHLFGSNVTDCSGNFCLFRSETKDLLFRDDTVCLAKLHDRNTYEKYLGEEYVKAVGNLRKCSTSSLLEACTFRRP
Experimental: Purified desferri-siderophores and commercially available ferrichrome were serially diluted to final concentrations of 2.5 mM, 250 μM, 25 μM, 2.5 μM and 250 nM (lanes 1-5, respectively). Siderophores were incubated with 12.5 μM human holo-Tf at 37 degrees for 16 hours. Iron saturation of transferrin was assessed by urea-PAGE (13).
Holotransferrin also was incubated with commercially available desferriferrichrome for comparison. The iron saturation of transferrin was monitored by urea-PAGE. Desferritriacetylfusarinine C, desferriferricrocin, and desferriferrichrome were diluted to concentrations ranging from 5 mM to 5 μM and incubated with holotransferrin (25 μM) in 50 mM Tris-150 mM NaCl-20 mM NaHCO3 (pH 7.4) buffer for 16 h at 37° C. The extent of iron saturation of transferrin at the end of the incubation period was determined by urea-PAGE.

A. fumigatus 13073 = assay: Siderophore secretion inhibitor assay (A440 after FeCl3 addition); type: cell-based, Aspergillus fumigatus; settings: 3 days
Source text: In this example 96-well sterile polystyrene filter plates as described above with white Duropore membranes at the base of the plate (Millipore) were used. The plates include a thick plastic layer under the wells, which has a one-way valve function that directs fluid into a receiving 96-well plate when the filter plate is subjected to a vacuum manifold or a centrifugal force. This layer can be peeled off if the membranes are to be sampled (punched) later.
Cultures were set up in the filter plates, with controls and inhibitors to be tested. After inclubation, culture fluid was pulled into a 96-well receiver plate, using the Beckman centrifuge and a JS 5.3 rotor designed to take 96-well plates. FeCl3 was added to the receiver plates, and A430 (general siderophores) or A440 (max for TAF) was read. Growth was scored in the plate by reading A600.
To test this method, different antibiotics were used to show inhibition of siderophore production by A. fumigatus 13073, as no inhibitors for the SidA gene product are currently known. Suitable ranges of concentrations of amphotericin B (fungizone), hygromycin, and nystatin were calculated based on the literature. Spores were harvested from A. fumigatus 13073 into PBS Tween, then washed once with PBS and counted. They were then diluted into Neilands' medium (without citrate) to give solutions of 2×10^5 and 2×10^6/ml. 100 μl of 2× spores and 100 μl of 2× antibiotics to yield a volume of 200 μl of Neilands' medium in each well, with the desired final concentrations of spores, 10^5 or 10^6/ml.
Antibiotics were prepared as follows. Amphotericin B came as a liquid solution, 250 µg/ml. […] Therefore 0, 0.125, 0.25, 0.5, 1 and […] final concentration was used. Nystatin was stored it in ˜1 mg dry aliquots at −20 C, and was prepared at a concentration of 2 mg/ml in DMSO for dilution into Neilands' media. According to reported information, nystatin should be effective at 1.5 to 6.5 µg/ml; therefore, 0, 0.5, 1, 5, 10 and 50 µg/ml were used as the final concentrations. Hygromycin gold stock was in solution at 100 mg/ml, and 0, 25, 50, 100, 150 and 200 µg/ml were used as the final concentrations in Neilands' medium. Plates were incubated for 3 days at 37° C. with shaking.
To test for siderophores, 20 μL of a solution of 2 mM FeCl3 in 10 mM HCl was added to each well in the receiver plates and the A440 was recorded on a plate reader. […] An increase in A440 indicates a more intense orange-red colour that develops in the presence of ferrated siderophores. […] Because 3-day incubation produces conidia, shorter incubation periods may be preferable.
Three identical plates were set up: one filter plate and two sterile clear 96-well plates. The clear plates were used to score growth, and the filter plate was used to detect siderophores. Columns 1-6 contained Neilands' medium without citrate and amphotericin 0-2 at g/ml. Columns 7-12 contained Neilands' medium with citrate and amphotericin at […]. The rows were set up with A. fumigatus as described above, but two sets of each were set up to be in the two plates. The spores from the previous experiment were stored at −20° C. in PBS, in siliconized tubes, at 2×10^8 conidia/ml, to facilitate these experiments. Plates were incubated for 48 hours at 37° C. without shaking.
The filter plate was centrifuged at 1000×g for 10 minutes and the liquids caught in a clear non-sterile plate, to which FeCl3 was added. The plate was allowed to sit and develop orange colour, and was then read at 440 nm. The clear plates (one without Fe and one with Fe added to growth medium from the beginning) were read at 600 nm (A600). In the result, iron enhanced conidiation. Some wells of the filter plate were lightly conidiated and would not drain. These were hand pipetted.

[2] = 1 ml GA, 4 days 37° C., 5 μM FeCl3
[3] = 1 ml GA, 96 hours, FeCl3 5 μM or ferrated TAF 10 μM
[4] = 5 ml GA medium, 4 days 37° C., 5 μM FeCl3 or 10 μM TAF
[5] = 1 ml GA + 5 μM FeCl3 + 10% serum, 50 μM desferri-TAF or desferri-ferricrocin, 4 days
[6] = GA + FeCl3 + 10% human serum, desferrisiderophore 50 μM

[Cl][Fe]([Cl])[Cl] [FeCl3]
Mean mycelial dry wt after 96 h (A. fumigatus ATCC 13073): 0.80^1 mg
dry weight, ΔsidA (A. fumigatus ΔsidA; [2]): 7.1^1 mg
Growth (mg dry weight) mean ± S.D., ΔsidA (A. fumigatus ΔsidA; [3]): 1.4 ± 1.1 mg dry weight
dry weight, ΔsidA (A. fumigatus ΔsidA; [4]): 47.4^1 mg
dry weight, parental [1, 2]: 7.8^1 mg
Growth (mg dry weight) mean ± S.D., wild type [1, 3]: 6.5 ± 0.4 mg dry weight
dry weight, parental [1, 4]: 44.3^1 mg
Growth (mg dry weight) mean ± S.D., ΔsidAR (A. fumigatus ΔsidA^R; [3]): 7.5 ± 0.3 mg dry weight

CC(=O)NC1CCCN(O)C(=O)/C=C(/C)CCOC(=O)C(NC(C)=O)CCCN(O)C(=O)/C=C(/C)CCOC(=O)C(NC(C)=O)CCCN(O)C(=O)/C=C(/C)CCOC1=O (stereo not drawn) [TAF, N′,N″,N′″-triacetylfusarinine C]
dry weight, ΔsidA (A. fumigatus ΔsidA; [5]): 7.2^1 mg
Growth (mg dry weight) mean ± S.D., ΔsidA (A. fumigatus ΔsidA; [3]): 4.4 ± 1.5 mg dry weight
dry weight, ΔsidA (A. fumigatus ΔsidA; [4]): 46^1 mg
dry weight, parental [1, 5]: 9.7^1 mg
Growth (mg dry weight) mean ± S.D., wild type [1, 3]: 6.2 ± 0.5 mg dry weight
dry weight, parental [1, 4]: 41^1 mg
Affinity of iron removal from holotransferrin (human holotransferrin): comparable to that of ferrichrome
Stability in human serum: stable in human serum
Growth (mg dry weight) mean ± S.D., ΔsidAR (A. fumigatus ΔsidA^R; [3]): 6.0 ± 0.1 mg dry weight

CC(=O)NC1CCCN(O)C(=O)C=C(C)CCOC(=O)C(NC(C)=O)CCCN(O)C(=O)C=C(C)CCOC(=O)C(NC(C)=O)CCCN(O)C(=O)C=C(C)CCOC1=O (stereo not drawn) [desferri-TAF, Desferritriacetylfusarinine C]
Restoration of growth of ΔsidA in the presence of human serum (A. fumigatus ΔsidA): restored to wild-type levels
Growth (mg dry weight) mean ± S.D., ΔsidA (A. fumigatus ΔsidA; [6]): 12.3 ± 1.2 mg dry weight
Growth (mg dry weight) mean ± S.D., wild type [1, 6]: 10.1 ± 0.4 mg dry weight
Concentration able to remove some iron from holotransferrin (human holotransferrin): 500 µM
Concentration at which complete absence of holotransferrin was observed (human holotransferrin): 5 mM
Growth (mg dry weight) mean ± S.D., ΔsidAR (A. fumigatus ΔsidA^R; [6]): 11.3 ± 0.3 mg dry weight

CC(=O)N(O)CCCC1NC(=O)CNC(=O)CNC(=O)CNC(=O)C(CCCN(O)C(C)=O)NC(=O)C(CCCN(O)C(C)=O)NC1=O (stereo not drawn) [desferriferrichrome] (cyclo(GGG[ξOrn(N(OH)Ac)][ξOrn(N(OH)Ac)][ξOrn(N(OH)Ac)]))
Concentration at which complete absence of holotransferrin was observed (human holotransferrin): 5 mM

CC(=O)N(O)CCC[C@@H]1NC(=O)CNC(=O)[C@H](CO)NC(=O)CNC(=O)[C@H](CCCN(O)C(C)=O)NC(=O)[C@H](CCCN(O)C(C)=O)NC1=O [desferriferricrocin] (cyclo(GSG[Orn(N5-OH,N5-Ac)][Orn(N5-OH,N5-Ac)][Orn(N5-OH,N5-Ac)]))
Restoration of growth of ΔsidA in the presence of human serum (A. fumigatus ΔsidA): restored to wild-type levels
Growth (mg dry weight) mean ± S.D., ΔsidA (A. fumigatus ΔsidA; [6]): 11.1 ± 1.1 mg dry weight
Growth (mg dry weight) mean ± S.D., wild type [1, 6]: 9.7 ± 2.00 mg dry weight
Concentration able to remove some iron from holotransferrin (human holotransferrin): 500 µM
Concentration at which complete absence of holotransferrin was observed (human holotransferrin): 5 mM
Growth (mg dry weight) mean ± S.D., ΔsidAR (A. fumigatus ΔsidA^R; [6]): 11.0 ± 1.2 mg dry weight

CC(=O)N([O-])CCC[C@@H]1NC(=O)CNC(=O)[C@H](CO)NC(=O)CNC(=O)[C@H](CCCN([O-])C(C)=O)NC(=O)[C@H](CCCN([O-])C(C)=O)NC1=O.[Fe+3] [ferricrocin] (cyclo(GSG[Orn(N5-OH,N5-Ac)][Orn(N5-OH,N5-Ac)][Orn(N5-OH,N5-Ac)]))
dry weight, ΔsidA (A. fumigatus ΔsidA; [5]): 11.0^1 mg
dry weight, parental [1, 5]: 11.1^1 mg
Affinity of iron removal from holotransferrin (human holotransferrin): comparable to that of ferrichrome

C[C@@H]1[C@H](O)[C@@H](C)/C=C/C=C/CC/C=C/C=C/C=C/C=C/C(O[C@H]2O[C@H](C)[C@@H](O)[C@H](N)[C@@H]2O)CC2O[C@](O)(CC(O)C(O)CCC(O)CC(O)CC(O)CC(=O)O[C@H]1C)CC(O)C2C(=O)O (stereo partly drawn) [nystatin]
A440 (ferrated siderophores) (A. fumigatus 13073; nystatin 0.5 μg/ml, 100000 spores/ml): 0.341 and 0.414 and 0.359
A440 (ferrated siderophores) (A. fumigatus 13073; nystatin 0.5 μg/ml, 1000000 spores/ml): 0.416 and 0.382 and 0.232
A440 (ferrated siderophores) (A. fumigatus 13073; nystatin 1 μg/ml, 100000 spores/ml): 0.340 and 0.31 and 0.325
A440 (ferrated siderophores) (A. fumigatus 13073; nystatin 1 μg/ml, 1000000 spores/ml): 0.412 and 0.492 and 0.329
A440 (ferrated siderophores) (A. fumigatus 13073; nystatin 5 μg/ml, 100000 spores/ml): 0.048 and 0.042 and 0.044
A440 (ferrated siderophores) (A. fumigatus 13073; nystatin 5 μg/ml, 1000000 spores/ml): 0.042 and 0.043
A440 (ferrated siderophores) (A. fumigatus 13073; nystatin 10 μg/ml, 100000 spores/ml): 0.043 and 0.045 and 0.042
A440 (ferrated siderophores) (A. fumigatus 13073; nystatin 10 μg/ml, 1000000 spores/ml): 0.042 and 0.043 and 0.050
A440 (ferrated siderophores) (A. fumigatus 13073; nystatin 50 μg/ml, 100000 spores/ml): 0.048 and 0.052 and 0.051
A440 (ferrated siderophores) (A. fumigatus 13073; nystatin 50 μg/ml, 1000000 spores/ml): 0.048 and 0.051

Apotransferrin: iron-free human transferrin
Mean mycelial dry wt after 96 h (A. fumigatus ATCC 13073): 0.02^1 mg

Holotransferrin: purified human iron-saturated transferrin
Mean mycelial dry wt after 96 h (A. fumigatus ATCC 13073): 1.30^1 mg
